Source: patent publication US8506946B2, “Compositions and methods for attracting noctuid moths” (Cotton Incorporated, priority 2006, dated 2013)

How the values were obtained:
[1] = system: Heliothis virescens; assay: Field trap capture of Heliothis virescens with pheromone mixture with or without synergist (Tedders traps); assay type: in vivo
Experimental: An experiment was carried out near Monticello, Drew County in Arkansas to study the response of tobacco bud worm, Heliothis virescens to a pheromone synergist. The experiment was carried out in a habitat of cotton and soybean. β-caryophyllene was used as a synergist with a mixture of pheromones (Z,E)-9,12-tetradecadien-1-ol acetate and (Z)-9-tetradecen-1-ol acetate at the ratio of 7:3. Tedders traps were used in the experiment. Each pheromone trap was baited with the pheromone mixture and approximately 3-6 mg of 3-caryophyllene and each control trap was baited with the pheromone mixture. The control trap contained no β-caryophyllene or other synergists. The pheromone mixture used in the experiment was LURETAPE® obtained from Hereon Environmental in Emigsville, Pa. The trapped adult insects of Heliothis virescens were collected on a daily basis and the total number of trapped insects was counted. Statistical analysis was done using the Least Squares means separation from the SAS GLM procedure.

[2] = system: Spodoptera exigua; assay: Field trap capture of Spodoptera exigua with (Z)-11-hexadecen-1-ol with or without synergist (Tedders traps); assay type: in vivo; conditions: approximately 3-6 mg β-caryophyllene added to (Z)-11-hexadecen-1-ol vs control trap with (Z)-11-hexadecen-1-ol only
Experimental: An experiment was carried out in three locations in Arkansas to study the response of beet army worm, Spodoptera exigua, in a cotton field to a pheromone synergist. The locations were near Fayetteville, Washington County, near Tillar, Drew County, and near Foreman, Little River County. β-caryophyllene was used as a synergist with (Z)-11-hexadecen-1-ol, a pheromone for Spodoptera exigua. Tedders traps were used in the experiment. Each pheromone trap was baited with (Z)-11-hexadecen-1-ol and approximately 3-6 mg of β-caryophyllene and each control trap was baited with (Z)-11-hexadecen-1-ol. The control trap contained no β-caryophyllene or other synergists. The trapped adult insects of Spodoptera exigua were collected on a daily basis and the total number of trapped insects was counted. Statistical analysis was done using the Least Squares means separation from the SAS GLM procedure.

SMILES: C=C1CC/C=C(\C)CC[C@@H]2[C@@H]1CC2(C)C [β-caryophyllene]
- increase in the number of captured Heliothis virescens ([1]; year 2004, approximately 3-6 mg β-caryophyllene added to pheromone mixture 7:3 (LURETAPE) vs control trap with pheromone mixture only, FIG. 2): ~147%
- increase in the number of captured Heliothis virescens ([1]; year 2005, approximately 3-6 mg β-caryophyllene added to pheromone mixture (Z,E)-9,12-tetradecadien-1-ol acetate and (Z)-9-tetradecen-1-ol acetate 7:3 (LURETAPE) vs control trap with pheromone mixture only, cotton and soybean habitat, Arkansas, FIG. 1): ~131%
- change in the number of captured Spodoptera exigua ([2]; year 2004, FIG. 4): ~−9%
- increase in the number of captured Spodoptera exigua ([2]; year 2005, cotton field, three locations in Arkansas, FIG. 3): ~69%
